Source: patent US9828333B2, “Compounds for the treatment of influenza” (CHRISTIAN-ALBRECHTS-UNIVERSITAT ZU KIEL, priority 2011, dated 2017)
Converted amounts (≈) assume the structure as drawn. “And” between values parts separate entries of the source, which are not always exact repeats. Equal values may be shown once. Where a name gives a salt, the structure may show the parent alone. Read-outs that look alike come from different tables or passages of the source.

Tests used:
in vivo = conditions: Sprague Dawley, rat, in vivo, po, 50 mg/kg
Description: Sprague Dawley (SD) rats were supplied for habitation 10 days before the start of the experiment, weighing ˜300-350 g and kept in an air conditioned room with a constant temperature of 20° C. and a humidity of 50%. In this room there was a day-night rhythm of twelve hours. The dark phase began daily at 18 o'clock and turned over to the light phase at 6 clock. The rats were kept over the acclimatization period in standard cages of the size 3 (length: 42 cm, width 26 cm, height: 15 cm) and transferred three days before commencement of an experiment into a special experimental room, placed in the identical environmental conditions. They received a maintenance diet (maintenance diet for rats and mice; No. 1320; Altromin) and tap water ad libitum.
A catheter was implanted in the vein as well as in the arteria femoralis of rats receiving an i.v. administration. Rats receiving only oral administration of substances received a […] catheter only.
The catheterized animals were kept after surgery for a day in the experimental room and individually in their experimental cages. The application of the test compounds was carried out on the second day after the operation. On the experimental day, the rats were weighed one hour prior to the test and the arterial catheter was flushed with 300 μl of heparin solution. Subsequently, the i.v. or oral administration of the compounds was carried out.
The oral administrations were performed as a suspension or solution made with gum arabic (10% w/v) by gavage.
The oral administrations were made as suspension or solution with gum arabic (10% w/v) by gavage.
After i.v. administration, plasma samples were taken at 5, 10, 20, 45, 90, 150, 240 and 360 min, respectively after oral administration after 30, 60, 90, 120, 180, 240 and 360 min. To this, in each case 300 μl of whole blood were taken using an insulin syringe and transferred into EDTA-coated Microvettes CB 300 (Sarstedt, Nümbrecht). After each withdrawal it was rinsed with 100 μl 0.9% saline or every 60 min with heparin solution (250 IU/ml). The blood sample was shaken briefly and put until centrifugation (4° C.; 14000 U/min; 10 min) on ice. Subsequently, the samples were frozen at −80° C.
The plasma samples were processed and analyzed by HPLC. Therefor, the plasma samples were thawed at room temperature. In each case, 80 μl methanol (+0.2% TFA) were prepared and subsequently 80 μl of the plasma samples were pipetted into. The samples were shaken for 45 min to precipitate plasma proteins. The samples were frozen at −80° C., thawed and shaken for another 15 min. The samples were centrifuged for 15 min at 13.000 RPM and the supernatant was transferred into HPLC vials. In each case 50 μl were used for the determinations by LC/MS.
The animal studies were evaluated using the following LC/MS method.

physchem = type: physicochemical; conditions: thermodynamic from solid; for solubility: read-out: maximum soluble concentration
Description: 2. Solubility Assays of the Compounds Tested
Determining the Solubility at Different pH Values:
Therefor, a few mg of the compounds were weighed and mixed with the volume of 50 mM KH2PO4 buffer of respective pH value for a 50 mM solution. […] Subsequently, the undissolved portion was removed by centrifugation at 10.000 rpm for 15 min, and the concentration in the supernatant was determined by HPLC.

albumin = albumin (Homo sapiens, UniProt P02768); type: in vitro ADME; conditions: 4% albumin solution, average of three concentrations (10, 25, 50 μM)
Description: 3. Determination of Protein Binding of the Amidine Effective Form (3) as Well as of Prodrugs Thereof (2, 4) and of the Guanidine Effective Form (9) as Well as of Prodrugs Thereof (6, 10)
The plasma protein binding was carried out in three different concentrations (10, 25, and 50 μM). A 4% albumin solution was used as protein solutions. In each case, 50 μl of a 10-fold concentrated substance solution were pipetted in 450 μl of the protein solution. The incubation was carried out for 15 minutes in the shaking water bath at 37° C. Subsequently, the samples were transferred in ultra-filtration units (Vivaspin 500, 10 kDa cut-off) and centrifuged for 15 min at 10.000 rpm. The filtrate was analyzed by HPLC. In addition, a control was run for each concentration, which was not treated with protein and not centrifuged.

[1] = test system: influenza A virus A/Jena/5258/2009 (pandemic H1N1; oseltamivir-sensitive); type: cell-based
[2] = test system: influenza A virus A/342/2009; test: microbe, parasite or virus in culture; type: cell-based, influenza A virus H1N1; conditions: read-out: 50% inhibitory concentration, A/342/2009
[3] = test system: influenza A virus A/Jena/5258/2009; test: microbe, parasite or virus in culture; type: cell-based, influenza A virus H1N1; conditions: read-out: 50% inhibitory concentration, A/Jena/5258/2009

Sequence of albumin (P02768 25-609): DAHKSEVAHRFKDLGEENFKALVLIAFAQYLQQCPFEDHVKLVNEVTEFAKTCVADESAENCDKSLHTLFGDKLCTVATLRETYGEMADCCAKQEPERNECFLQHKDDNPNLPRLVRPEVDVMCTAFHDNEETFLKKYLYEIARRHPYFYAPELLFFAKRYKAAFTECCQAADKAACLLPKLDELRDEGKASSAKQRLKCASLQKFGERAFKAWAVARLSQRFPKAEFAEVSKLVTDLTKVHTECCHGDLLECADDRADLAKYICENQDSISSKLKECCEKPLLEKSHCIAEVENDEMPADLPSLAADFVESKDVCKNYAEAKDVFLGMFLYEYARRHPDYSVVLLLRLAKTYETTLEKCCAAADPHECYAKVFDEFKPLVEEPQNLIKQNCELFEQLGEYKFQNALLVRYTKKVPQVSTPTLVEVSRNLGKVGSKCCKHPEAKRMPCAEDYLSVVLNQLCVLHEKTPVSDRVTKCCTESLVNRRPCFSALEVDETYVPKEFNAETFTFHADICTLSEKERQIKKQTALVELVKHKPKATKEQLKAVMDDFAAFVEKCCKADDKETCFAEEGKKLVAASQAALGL

| SMILES | Bioavailability (in vivo) [%] | Plasma level of derivative 3 (Conc.) after oral administration of the labelled derivative (in vivo; 0 min) [nM] | Plasma level of derivative 3 (Conc.) after oral administration of the labelled derivative (in vivo; 30 min) [nM] | Plasma level of derivative 3 (Conc.) after oral administration of the labelled derivative (in vivo; 60 min) [nM] | Plasma level of derivative 3 (Conc.) after oral administration of the labelled derivative (in vivo; 90 min) [nM] | Plasma level of derivative 3 (Conc.) after oral administration of the labelled derivative (in vivo; 120 min) [nM] | Plasma level of derivative 3 (Conc.) after oral administration of the labelled derivative (in vivo; 180 min) [nM] | Plasma level of derivative 3 (Conc.) after oral administration of the labelled derivative (in vivo; 240 min) [nM] | Plasma level of derivative 3 (Conc.) after oral administration of the labelled derivative (in vivo; 360 min) [nM] | solubility at 30 min (physchem; aqueous buffer) [mM] | solubility at 30 min (physchem; pH 2, aqueous buffer) | solubility at 30 min (physchem; pH 7.4, aqueous buffer) | solubility at 30 min (physchem; pH 9, aqueous buffer) | Protein binding (albumin) [%] | further results |
| --- | --- | --- | --- | --- | --- | --- | --- | --- | --- | --- | --- | --- | --- | --- | --- |
| CCOC(=O)C1=C[C@@H](OC(CC)CC)[C@H](NC(C)=O)[C@@H](NC(C)=N)C1 [Compound 2, (3R,4R,5S)-4-acetamido-5-(N-acetimidamido)-3-(1-ethylpropoxy)cyclohex-1-en-1-carboxylic acid ethyl ester hydrobromide] | 0.8 | 0 | 430 | 350 | 330 | 290 | 70 | 10 | 0 | > 50 | > 17700 µg/mL and > 50000 µM | > 17700 µg/mL and > 50000 µM | > 17700 µg/mL and > 50000 µM | 34.8 ± 8.8 | – |
| CCOC(=O)C1=C[C@@H](OC(CC)CC)[C@H](NC(C)=O)[C@@H](N/C(C)=N/O)C1 [Compound 4, (3R,4R,5S)-4-acetamido-5-[N—(N′-hydroxy)acetimidamido]-3-(1-ethylpropoxy)cyclohex-1-en-1-carboxylic acid ethyl ester] | – | 0 | 6500 | 8980 | 8800 | 8100 | 6430 | 5340 | 2190 | > 20 | > 18500 µg/mL and > 50000 µM | 8600 ± 400 µg/mL | 8600 ± 700 µg/mL | 26.7 ± 2.5 | Plasma level of intermediary metabolite 11 (Conc.) after oral administration of derivative 4 (in vivo; 0 min): 0 nM; Plasma level of intermediary metabolite 11 (Conc.) after oral administration of derivative 4 (in vivo; 30 min): 7220 nM; Plasma level of intermediary metabolite 11 (Conc.) after oral administration of derivative 4 (in vivo; 60 min): 2680 nM; Plasma level of intermediary metabolite 11 (Conc.) after oral administration of derivative 4 (in vivo; 90 min): 2160 nM; Plasma level of intermediary metabolite 11 (Conc.) after oral administration of derivative 4 (in vivo; 120 min): 1960 nM; Plasma level of intermediary metabolite 11 (Conc.) after oral administration of derivative 4 (in vivo; 180 min): 850 nM; Plasma level of intermediary metabolite 11 (Conc.) after oral administration of derivative 4 (in vivo; 240 min): 490 nM; Plasma level of intermediary metabolite 11 (Conc.) after oral administration of derivative 4 (in vivo; 360 min): 130 nM; solubility (physchem; aqueous buffer, pH 7.4, 50 mM KH2PO4 buffer): 23.2 ± 1.2 mM (≈ 8570 µg/mL); solubility (physchem; aqueous buffer, pH 9.0, 50 mM KH2PO4 buffer): 23.3 ± 1.8 mM (≈ 8610 µg/mL) |
| CCOC(=O)C1=C[C@@H](OC(CC)CC)[C@H](NC(C)=O)[C@@H](NC(N)=NO)C1 [Compound 6, (3R,4R,5S)-4-acetamido-[N—(N′ hydroxy)guanidino]-3-(1-ethylpropoxy)cyclohex-1-en-1-carboxylic acid ethyl ester] | 1.7 | – | – | – | – | – | – | – | – | > 50 | > 18500 µg/mL and > 50000 µM | > 18500 µg/mL and > 50000 µM | > 18500 µg/mL and > 50000 µM | 37.5 ± 10.1 | Plasma level of derivative 9 (Conc.) after oral administration of the labelled derivative (in vivo; 0 min): 0 nM; Plasma level of intermediary metabolite 12 (Conc.) after oral administration of derivative 6 (in vivo; 0 min): 0 nM; Plasma level of derivative 9 (Conc.) after oral administration of the labelled derivative (in vivo; 30 min): 200 nM; Plasma level of intermediary metabolite 12 (Conc.) after oral administration of derivative 6 (in vivo; 30 min): 200 nM; Plasma level of derivative 9 (Conc.) after oral administration of the labelled derivative (in vivo; 60 min): 220 nM; Plasma level of intermediary metabolite 12 (Conc.) after oral administration of derivative 6 (in vivo; 60 min): 160 nM; Plasma level of derivative 9 (Conc.) after oral administration of the labelled derivative (in vivo; 90 min): 180 nM; Plasma level of intermediary metabolite 12 (Conc.) after oral administration of derivative 6 (in vivo; 90 min): 200 nM; Plasma level of derivative 9 (Conc.) after oral administration of the labelled derivative (in vivo; 120 min): 190 nM; Plasma level of intermediary metabolite 12 (Conc.) after oral administration of derivative 6 (in vivo; 120 min): 190 nM; Plasma level of derivative 9 (Conc.) after oral administration of the labelled derivative (in vivo; 180 min): 210 nM; Plasma level of intermediary metabolite 12 (Conc.) after oral administration of derivative 6 (in vivo; 180 min): 80 nM; Plasma level of derivative 9 (Conc.) after oral administration of the labelled derivative (in vivo; 240 min): 180 nM; Plasma level of intermediary metabolite 12 (Conc.) after oral administration of derivative 6 (in vivo; 240 min): 10 nM; Plasma level of derivative 9 (Conc.) after oral administration of the labelled derivative (in vivo; 360 min): 50 nM; Plasma level of intermediary metabolite 12 (Conc.) after oral administration of derivative 6 (in vivo; 360 min): 0 nM |
| CCOC(=O)C1=C[C@@H](OC(CC)CC)[C@H](NC(C)=O)[C@@H](NC(=N)N)C1 [Compound 10] | 1.1 | – | – | – | – | – | – | – | – | > 50 | > 23400 µg/mL and > 50000 µM | > 23400 µg/mL and > 50000 µM | > 23400 µg/mL and > 50000 µM | 30.1 ± 2.3 | – |
| CC(=O)N[C@H]1[C@H]([C@H](O)[C@H](O)CO)OC(C(=O)O)=C[C@@H]1N=C(N)N [Zanamivir, reference compound] | – | – | – | – | – | – | – | – | – | – | – | – | – | – | 90% inhibitory concentration, A/Jena/5258/2009 [1]: 0.125 (0.219) μM; 95% inhibitory concentration (values in parentheses), A/Jena/5258/2009 [1]: 0.125 (0.219) μM; IC50 [2]: 600 nM; IC50 [3]: > 19500 nM |
